Source: patent publication US20260125382A1, “COMPOUNDS FOR INHIBITING OR DEGRADING CDK2 AND/OR CDK9 AND MEDICINAL USE THEREOF” (KOREA RESEARCH INSTITUTE OF CHEMICAL TECHNOLOGY, priority 2022, published 2026)

Legend:
CDK9 = target: T1, CDK9 (Homo sapiens, UniProt P50750); assay: CDK protein degradation activity (Western blotting), CDK9; assay type: cell-based; conditions: MDA-MB-231 cells, 16 hours, Western blot
T1 construct: endogenous in cells; host or cells: MDA-MB-231
How it was run: (§1)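 MDA-MB-231 cells were treated with compound at final concentrations of 100 nM, 1 μM and 10 μM, or DMSO vehicle, for 16 h. Lysates were resolved by SDS-PAGE and immunoblotted for CDK2, CDK9 and tubulin, with band intensities quantified densitometrically.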

CDK2 = target: T2, CDK2 (Homo sapiens, UniProt P24941); assay: CDK protein degradation activity (Western blotting), CDK2; assay type: cell-based; conditions: MDA-MB-231 cells, 16 hours, Western blot
T2 construct: endogenous in cells; host or cells: MDA-MB-231
How it was run: as §1

T1 sequence (P50750 whole entry): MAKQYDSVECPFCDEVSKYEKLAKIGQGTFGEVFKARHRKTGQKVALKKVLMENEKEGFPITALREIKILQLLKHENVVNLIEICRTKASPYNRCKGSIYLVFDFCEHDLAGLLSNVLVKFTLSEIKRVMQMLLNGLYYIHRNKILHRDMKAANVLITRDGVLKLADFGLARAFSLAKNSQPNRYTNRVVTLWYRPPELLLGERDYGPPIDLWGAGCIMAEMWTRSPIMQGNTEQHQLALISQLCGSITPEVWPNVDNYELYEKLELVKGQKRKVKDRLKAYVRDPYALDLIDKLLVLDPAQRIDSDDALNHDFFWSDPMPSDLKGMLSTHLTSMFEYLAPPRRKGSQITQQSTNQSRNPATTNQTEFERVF

With `O=C1CC[C@H](N2C(=O)c3ccc(OCC(=O)N4CCN(CCCN5CCN(c6ccc(Nc7ncnc8c7ncn8[C@H]7C[C@@H](NC(=O)Cc8ccccc8)C7)cc6)CC5)CC4)cc3C2=O)C(=O)N1` [Compound 234, N-((1s,3s)-3-(6-((4-(4-(3-(4-(2-((2-(2,6-dioxopiperidin-3-yl)-1,3-dioxoisoindolin-5-yl)oxy)acetyl)piperazin-1-yl)propyl)piperazin-1-yl)phenyl)amino)-9H-purin-9-yl)cyclobutyl)-2-phenylacetamide] the “Enzyme degradation CDK9 (% remaining) @ 0.1 μM” value (CDK9) was 60%, the “Enzyme degradation CDK9 (% remaining) @ 1 μM” value (CDK9) was 40% and the “Enzyme degradation CDK9 (% remaining) @ 10 μM” value (CDK9) was 0%. The “Enzyme degradation CDK2 (% remaining) @ 0.1 μM” value (CDK2) was 100%, the “Enzyme degradation CDK2 (% remaining) @ 1 μM” value (CDK2) was 80% and the “Enzyme degradation CDK2 (% remaining) @ 10 μM” value (CDK2) was 70%.

In the case of `O=C1CC[C@H](N2C(=O)c3ccc(N4CCN(CCC5CCN(c6ccc(Nc7ncnc8c7ncn8[C@H]7C[C@@H](NC(=O)Cc8ccccc8)C7)cc6)CC5)CC4)cc3C2=O)C(=O)N1` [Compound 338, N-((1s,3s)-3-(6-((4-(4-(2-(4-(2-(2,6-dioxopiperidin-3-yl)-1,3-dioxoisoindolin-5-yl)piperazin-1-yl)ethyl)piperidin-1-yl)phenyl)amino)-9H-purin-9-yl)cyclobutyl)-2-phenylacetamide], the “Enzyme degradation CDK9 (% remaining) @ 0.1 μM” value (CDK9) is reported as 50%, the “Enzyme degradation CDK9 (% remaining) @ 1 μM” value (CDK9) is reported as 0% and the “Enzyme degradation CDK9 (% remaining) @ 10 μM” value (CDK9) is reported as 0%. For the same compound, the “Enzyme degradation CDK2 (% remaining) @ 0.1 μM” value (CDK2) was 10%, the “Enzyme degradation CDK2 (% remaining) @ 1 μM” value (CDK2) was 0% and the “Enzyme degradation CDK2 (% remaining) @ 10 μM” value (CDK2) was 0%.

With `Cc1cccc(C(=O)NC2CC(n3cnc4c(NCCC5CCN(CC6CCN(C(=O)COc7cccc8c7C(=O)N([C@H]7CCC(=O)NC7=O)C8=O)CC6)CC5)ncnc43)C2)n1` (stereo partly drawn) [Compound 122, N-((1s,3s)-3-(6-((2-(1-((1-(2-((2-(2,6-dioxopiperidin-3-yl)-1,3-dioxoisoindolin-4-yl)oxy)acetyl)piperidin-4-yl)methyl)piperidin-4-yl)ethyl)amino)-9H-purin-9-yl)cyclobutyl)-6-methylpicolinamide] the “Enzyme degradation CDK9 (% remaining) @ 0.1 μM” value (CDK9) was 10%, the “Enzyme degradation CDK9 (% remaining) @ 1 μM” value (CDK9) was 0% and the “Enzyme degradation CDK9 (% remaining) @ 10 μM” value (CDK9) was 0%. For the same compound, the “Enzyme degradation CDK2 (% remaining) @ 0.1 μM” value (CDK2) was 30%, the “Enzyme degradation CDK2 (% remaining) @ 1 μM” value (CDK2) was 10% and the “Enzyme degradation CDK2 (% remaining) @ 10 μM” value (CDK2) was 0%.

In the case of `O=C1CC[C@@H](c2ccc(OCC(=O)N3CCC(CN4CCN(c5ccc(Nc6ncnc7c6ncn7[C@H]6C[C@@H](NC(=O)c7cccc(Cl)n7)C6)cc5)CC4)CC3)cc2)C(=O)N1` [Compound 440, 6-chloro-N-((1s,3s)-3-(6-((4-(4-((1-(2-(4-(2,6-dioxopiperidin-3-yl)phenoxy)acetyl)piperidin-4-yl)methyl)piperazin-1-yl)phenyl)amino)-9H-purin-9-yl)cyclobutyl)picolinamide], the “Enzyme degradation CDK9 (% remaining) @ 0.1 μM” value (CDK9) is reported as 10/10/10%, the “Enzyme degradation CDK9 (% remaining) @ 1 μM” value (CDK9) is reported as 10/10/10% and the “Enzyme degradation CDK9 (% remaining) @ 10 μM” value (CDK9) is reported as 10/10/10%. For the same compound, the “Enzyme degradation CDK2 (% remaining) @ 0.1 μM” value (CDK2) was 20/20/20%, the “Enzyme degradation CDK2 (% remaining) @ 1 μM” value (CDK2) was 20/20/20% and the “Enzyme degradation CDK2 (% remaining) @ 10 μM” value (CDK2) was 20/20/20%.

In the case of `Cc1cccc(C(=O)N[C@H]2C[C@@H](n3cnc4c(NCc5cccc(N6CCN(CC7CCN(c8ccc9c(c8)C(=O)N([C@H]8CCC(=O)NC8=O)C9=O)CC7)CC6)c5)ncnc43)C2)n1` [Compound 137, N-((1s,3s)-3-(6-((3-(4-((1-(2-(2,6-dioxopiperidin-3-yl)-1,3-dioxoisoindolin-5-yl)piperidin-4-yl)methyl)piperazin-1-yl)benzyl)amino)-9H-purin-9-yl)cyclobutyl)-6-methylpicolinamide], the “Enzyme degradation CDK9 (% remaining) @ 0.1 μM” value (CDK9) is reported as 0/0/0%, the “Enzyme degradation CDK9 (% remaining) @ 1 μM” value (CDK9) is reported as 0/0/0% and the “Enzyme degradation CDK9 (% remaining) @ 10 μM” value (CDK9) is reported as 0/0/0%. The “Enzyme degradation CDK2 (% remaining) @ 0.1 μM” value (CDK2) was 30%, the “Enzyme degradation CDK2 (% remaining) @ 1 μM” value (CDK2) was 40% and the “Enzyme degradation CDK2 (% remaining) @ 10 μM” value (CDK2) was 40%.

`O=C1CCC(N2C(=O)c3cc(F)c(N4CCC(N5CCN(c6ccc(Nc7ncnc8c7ncn8[C@H]7C[C@@H](NC(=O)Cc8ccccc8)C7)cc6)CC5)CC4)cc3C2=O)C(=O)N1` (stereo partly drawn) [Compound 333, N-((1s,3s)-3-(6-((4-(4-(1-(2-(2,6-dioxopiperidin-3-yl)-6-fluoro-1,3-dioxoisoindolin-5-yl)piperidin-4-yl)piperazin-1-yl)phenyl)amino)-9H-purin-9-yl)cyclobutyl)-2-phenylacetamide] was tested, and the “Enzyme degradation CDK9 (% remaining) @ 0.1 μM” value (CDK9) was 50%, the “Enzyme degradation CDK9 (% remaining) @ 1 μM” value (CDK9) was 0% and the “Enzyme degradation CDK9 (% remaining) @ 10 μM” value (CDK9) was 0%. The “Enzyme degradation CDK2 (% remaining) @ 0.1 μM” value (CDK2) was 50%, the “Enzyme degradation CDK2 (% remaining) @ 1 μM” value (CDK2) was 10% and the “Enzyme degradation CDK2 (% remaining) @ 10 μM” value (CDK2) was 10%.

For `Cc1cccc(C(=O)NC2CC(n3cnc4c(Nc5ccc(N6CCN(CC7CCN(C(=O)CNc8cccc9c8C(=O)N([C@H]8CCC(=O)NC8=O)C9=O)CC7)CC6)cc5)ncnc43)C2)n1` (stereo partly drawn) [Compound 93, N-((1s,3s)-3-(6-((4-(4-((1-((2-(2,6-dioxopiperidin-3-yl)-1,3-dioxoisoindolin-4-yl)glycyl)piperidin-4-yl)methyl)piperazin-1-yl)phenyl)amino)-9H-purin-9-yl)cyclobutyl)-6-methylpicolinamide], the “Enzyme degradation CDK9 (% remaining) @ 0.1 μM” value (CDK9) was 0/0/0%, the “Enzyme degradation CDK9 (% remaining) @ 1 μM” value (CDK9) was 0/0/0% and the “Enzyme degradation CDK9 (% remaining) @ 10 μM” value (CDK9) was 0/0/0%. For the same compound, the “Enzyme degradation CDK2 (% remaining) @ 0.1 μM” value (CDK2) was 0%, the “Enzyme degradation CDK2 (% remaining) @ 1 μM” value (CDK2) was 10% and the “Enzyme degradation CDK2 (% remaining) @ 10 μM” value (CDK2) was 10%.

In the case of `Cc1cccc(C(=O)N[C@H]2C[C@@H](n3cnc4c(Nc5ccc(N6CCN(CCC7CCN(c8ccc9nnn([C@H]%10CCC(=O)NC%10=O)c(=O)c9c8)CC7)CC6)cc5)ncnc43)C2)n1` [Compound 382, N-((1s,3s)-3-(6-((4-(4-(2-(1-(3-(2,6-dioxopiperidin-3-yl)-4-oxo-3,4-dihydrobenzo[d][1,2,3]triazin-6-yl)piperidin-4-yl)ethyl)piperazin-1-yl)phenyl)amino)-9H-purin-9-yl)cyclobutyl)-6-methylpicolinamide], the “Enzyme degradation CDK9 (% remaining) @ 0.1 μM” value (CDK9) is reported as 0/0/0%, the “Enzyme degradation CDK9 (% remaining) @ 1 μM” value (CDK9) is reported as 0/0/0% and the “Enzyme degradation CDK9 (% remaining) @ 10 μM” value (CDK9) is reported as 0/0/0%. For the same compound, the “Enzyme degradation CDK2 (% remaining) @ 0.1 μM” value (CDK2) was 30%, the “Enzyme degradation CDK2 (% remaining) @ 1 μM” value (CDK2) was 30% and the “Enzyme degradation CDK2 (% remaining) @ 10 μM” value (CDK2) was 50%.

With `O=C1CC[C@H](N2C(=O)c3ccc(N4CC(C(=O)N5CCN(C6CCN(c7ccc(Nc8ncnc9c8ncn9C8CC(NC(=O)Cc9ccccc9)C8)cc7)CC6)CC5)C4)cc3C2=O)C(=O)N1` (stereo partly drawn) [Compound 364, N-((1s,3s)-3-(6-((4-(4-(4-(1-(2-(2,6-dioxopiperidin-3-yl)-1,3-dioxoisoindolin-5-yl)azetidin-3-carbonyl)piperazin-1-yl)piperidin-1-yl)phenyl)amino)-9H-purin-9-yl)cyclobutyl)-2-phenylacetamide] the “Enzyme degradation CDK9 (% remaining) @ 0.1 μM” value (CDK9) was 70%, the “Enzyme degradation CDK9 (% remaining) @ 1 μM” value (CDK9) was 10% and the “Enzyme degradation CDK9 (% remaining) @ 10 μM” value (CDK9) was 10%. For the same compound, the “Enzyme degradation CDK2 (% remaining) @ 0.1 μM” value (CDK2) was 100%, the “Enzyme degradation CDK2 (% remaining) @ 1 μM” value (CDK2) was 50% and the “Enzyme degradation CDK2 (% remaining) @ 10 μM” value (CDK2) was 50%.
